Results on four molecules are retold here after patent US4812465A, “Triazole derivatives for use as antimycotic agents” (CL Pharma Aktiengesellschaft, priority 1986, dated 1989).

≈ marks a conversion by molar mass, not a printed value.

The subject of one data set is Absidia ramosa. Description: In vitro determination of minimum inhibitory concentration (MIC), serial dilution. The class given is cell-based. As to conditions: Lichtheimia ramosa, 336 h, pH 6, Absidia ramosa; pH 6.0, 22° C., 14 days. The method, then:
(§1) The antimycotic activities of the compounds were measured by in vitro determination of the minimum inhibitory concentration (MIC) for yeasts, molds and dermatophytes.
(§2) 6 dermatophytes, 2 yeasts and 4 molds were used for testing with fungi, as follows:
(§3) The minimum inhibitory concentration (MIC) was determined in serial dilution tests in test tubes. The volume of the liquid nutrient medium in each test tube was 4.5 ml.
(§4) The substances were dissolved in DMSO and diluted with sterile distilled water to 10 concentrations (100, 50, 25, 12.5, 6.25, 3.12, 1.56, 0.78, 0.39 and 0.19 μg/ml). 0.5 ml of each of these dilution steps was added to liquid nutrient medium. Thus, a constant concentration of solvent in all the nutrient media was ensured, irrespective of the active compound concentration.
(§5) A comparison solution which contained only the solvent in appropriate concentration was included when carrying out each of the tests.
(§6) The individual strains were maintained on Sabouraud/beerwort agar slants and, before they were used in a test, they underwent a passage on a modified Sabouraud liquid nutrient medium. The strains were then harvested, washed and converted into a suspension of McFaerland 3 in the case of yeasts and molds and of McFaerland 4-5 in the case of dermatophytes.
(§7) The amount of material inoculated (inoculum) was 100 μl/test tube (inoculated densities: yeasts about 10^3 /ml, molds about 10^4 /ml, dermatophytes about 10^4 /ml). The pH of the liquid nutrient medium was 6.0. After inoculation had taken place the fungi were incubated at 22° C. for 14 days.
(§8) The MIC was then determined. The concentration step at which growth was no longer visible on macroscopic inspection was used for the determination of the MIC. The comparison substance used was 1-(2-(2,4-dichlorophenyl)-2-(2,4-dichlorophenylmethoxy)ethyl)-1H-imidazole(compound A).
The term MIC denotes the lowest concentration that inhibits growth of the organism. Take `CN(CCCOc1ccc(I)cc1)C(Cn1ccnc1)c1ccc(Cl)cc1Cl` (stereo not drawn) [Compound 65]: the MIC was determined as 3.12 µg/mL (≈ 5.88 µM).
On to `Cc1cc(Cl)ccc1OCCCNC(Cn1cncn1)c1ccc(Cl)cc1Cl` (stereo not drawn) [Compound 68], for which the MIC was 100 µg/mL (≈ 227 µM).
Still for that read-out and setting: the same measure for `Clc1ccc(C(Cn2cncn2)NCCCOc2c(Cl)cccc2Cl)c(Cl)c1` (stereo not drawn) [Compound 72]: 100 µg/mL (≈ 217 µM); for `Clc1ccc(C(Cn2ccnc2)NCCCSc2ccccc2)c(Cl)c1` (stereo not drawn) [Compound 90]: 12.5 µg/mL (≈ 30.8 µM).

Another data set relates to Candida albicans. Described as above. It counts as cell-based. As to conditions: 336 h, pH 6, Candida albicans, pH 6.0, 22° C., 14 days, read-out: MIC C.alb. The method, then: as §1, §2, §3, §4, §5, §6, §7, §8
As for `CN(CCCOc1ccc(I)cc1)C(Cn1ccnc1)c1ccc(Cl)cc1Cl` (stereo not drawn) [Compound 65], the minimum inhibitory concentration (MIC) came to 3.12 µg/mL (≈ 5.88 µM).
The same measure, in the same setting: the same measure for `Cc1cc(Cl)ccc1OCCCNC(Cn1cncn1)c1ccc(Cl)cc1Cl` (stereo not drawn) [Compound 68]: 50 µg/mL (≈ 114 µM); for `Clc1ccc(C(Cn2cncn2)NCCCOc2c(Cl)cccc2Cl)c(Cl)c1` (stereo not drawn) [Compound 72]: 3.12 µg/mL (≈ 6.78 µM); for `Clc1ccc(C(Cn2ccnc2)NCCCSc2ccccc2)c(Cl)c1` (stereo not drawn) [Compound 90]: 6.25 µg/mL (≈ 15.4 µM).

A further data set deals with Microsporum gypseum. The description is as above. The class given is cell-based. To be noted: Nannizzia gypsea, 336 h, pH 6, Microsporum gypseum; pH 6.0, 22° C., 14 days; read-out: MIC Mi.gyp. The method, then:
as §1, §2, §3, §4, §5, §6, §7, §8
Consider `CN(CCCOc1ccc(I)cc1)C(Cn1ccnc1)c1ccc(Cl)cc1Cl` (stereo not drawn) [Compound 65], for which the MIC amounted to 3.12 µg/mL (≈ 5.88 µM).
On the same count and under the same terms, the same measure for `Cc1cc(Cl)ccc1OCCCNC(Cn1cncn1)c1ccc(Cl)cc1Cl` (stereo not drawn) [Compound 68]: 25 µg/mL (≈ 56.8 µM).
The same measure, in the same setting: as for `Clc1ccc(C(Cn2cncn2)NCCCOc2c(Cl)cccc2Cl)c(Cl)c1` (stereo not drawn) [Compound 72], the figure is 6.25 µg/mL (≈ 13.6 µM).
Still for that read-out and setting: the same measure for `Clc1ccc(C(Cn2ccnc2)NCCCSc2ccccc2)c(Cl)c1` (stereo not drawn) [Compound 90]: 3.12 µg/mL (≈ 7.68 µM).

A further data set has as its system Mucor mucedo plus. The description is as above. It counts as cell-based. To be noted: Mucor mucedo, 336 h, pH 6, Mucor mucedo plus; pH 6.0, 22° C., 14 days. On the procedure:
as §1, §2, §3, §4, §5, §6, §7, §8
Regarding `CN(CCCOc1ccc(I)cc1)C(Cn1ccnc1)c1ccc(Cl)cc1Cl` (stereo not drawn) [Compound 65], the MIC is 6.25 µg/mL.
The same measure, in the same setting: the same measure for `Cc1cc(Cl)ccc1OCCCNC(Cn1cncn1)c1ccc(Cl)cc1Cl` (stereo not drawn) [Compound 68]: 6.25 µg/mL; for `Clc1ccc(C(Cn2cncn2)NCCCOc2c(Cl)cccc2Cl)c(Cl)c1` (stereo not drawn) [Compound 72]: 6.25 µg/mL; for `Clc1ccc(C(Cn2ccnc2)NCCCSc2ccccc2)c(Cl)c1` (stereo not drawn) [Compound 90]: 6.25 µg/mL.

A further data set concerns Aspergillus fumigatus. The description is as above. It counts as cell-based. To be noted: 20160 min, pH 6. The method, then: as §1, §2, §3, §4, §5, §6, §7, §8
For the molecule `CN(CCCOc1ccc(I)cc1)C(Cn1ccnc1)c1ccc(Cl)cc1Cl` (stereo not drawn) [Compound 65], the “MIC Asp.fu.” value was 3,12 μg/ml.
Still for that read-out and setting: as for `Cc1cc(Cl)ccc1OCCCNC(Cn1cncn1)c1ccc(Cl)cc1Cl` (stereo not drawn) [Compound 68], the figure is 100 µg/mL (≈ 227 µM); as for `Clc1ccc(C(Cn2cncn2)NCCCOc2c(Cl)cccc2Cl)c(Cl)c1` (stereo not drawn) [Compound 72], 3,12 μg/ml.
Same read-out and setting: the same measure for `Clc1ccc(C(Cn2ccnc2)NCCCSc2ccccc2)c(Cl)c1` (stereo not drawn) [Compound 90]: 3,12 μg/ml.

The test system of a further data set is Mucor mucedo minus. The data set is described as above. It counts as cell-based. To be noted: Mucor mucedo, 336 h, pH 6, Mucor mucedo minus; pH 6.0, 22° C., 14 days. The method, then:
as §1, §2, §3, §4, §5, §6, §7, §8
With `CN(CCCOc1ccc(I)cc1)C(Cn1ccnc1)c1ccc(Cl)cc1Cl` (stereo not drawn) [Compound 65], the MIC stood at 6.25 µg/mL (≈ 11.8 µM).
`Cc1cc(Cl)ccc1OCCCNC(Cn1cncn1)c1ccc(Cl)cc1Cl` (stereo not drawn) [Compound 68] registered an MIC of 12.5 µg/mL (≈ 28.4 µM).
The same measure, in the same setting: the same measure for `Clc1ccc(C(Cn2cncn2)NCCCOc2c(Cl)cccc2Cl)c(Cl)c1` (stereo not drawn) [Compound 72]: 6.25 µg/mL (≈ 13.6 µM); for `Clc1ccc(C(Cn2ccnc2)NCCCSc2ccccc2)c(Cl)c1` (stereo not drawn) [Compound 90]: 3.12 µg/mL (≈ 7.68 µM).

The next data set has as its system Trichophyton rubrum. The data set is described as above. As to conditions: 336 h, pH 6, Trichophyton rubrum, pH 6.0, 22° C., 14 days. The class given is cell-based. On the procedure: as §1, §2, §3, §4, §5, §6, §7, §8
For the molecule `CN(CCCOc1ccc(I)cc1)C(Cn1ccnc1)c1ccc(Cl)cc1Cl` (stereo not drawn) [Compound 65], it took 0.78 µg/mL (≈ 1.47 µM) to inhibit growth (MIC).
The same measure, in the same setting: as for `Cc1cc(Cl)ccc1OCCCNC(Cn1cncn1)c1ccc(Cl)cc1Cl` (stereo not drawn) [Compound 68], the figure is 50 µg/mL (≈ 114 µM); as for `Clc1ccc(C(Cn2cncn2)NCCCOc2c(Cl)cccc2Cl)c(Cl)c1` (stereo not drawn) [Compound 72], 3.12 µg/mL (≈ 6.78 µM).
`Clc1ccc(C(Cn2ccnc2)NCCCSc2ccccc2)c(Cl)c1` (stereo not drawn) [Compound 90] returned an MIC of 1.56 µg/mL (≈ 3.84 µM).

In the next data set the test system is Epidermophyton floccosum. The data set is described as above. The class given is cell-based. To be noted: 336 h, pH 6, Epidermophyton floccosum, pH 6.0, 22° C., 14 days. On the procedure:
as §1, §2, §3, §4, §5, §6, §7, §8
Molecule `CN(CCCOc1ccc(I)cc1)C(Cn1ccnc1)c1ccc(Cl)cc1Cl` (stereo not drawn) [Compound 65] yielded an MIC of 3.12 µg/mL (≈ 5.88 µM).
Same read-out and setting: as for `Cc1cc(Cl)ccc1OCCCNC(Cn1cncn1)c1ccc(Cl)cc1Cl` (stereo not drawn) [Compound 68], the figure is 25 µg/mL (≈ 56.8 µM).
The same measure, in the same setting: as for `Clc1ccc(C(Cn2cncn2)NCCCOc2c(Cl)cccc2Cl)c(Cl)c1` (stereo not drawn) [Compound 72], the figure is 6.25 µg/mL (≈ 13.6 µM); as for `Clc1ccc(C(Cn2ccnc2)NCCCSc2ccccc2)c(Cl)c1` (stereo not drawn) [Compound 90], 3.12 µg/mL (≈ 7.68 µM).

In the next data set the test system is Candida tropicalis. The description is as above. It counts as cell-based. As to conditions: 336 h, pH 6, Candida tropicalis, pH 6.0, 22° C., 14 days, read-out: MIC C.trop. The method, then: as §1, §2, §3, §4, §5, §6, §7, §8
On to `CN(CCCOc1ccc(I)cc1)C(Cn1ccnc1)c1ccc(Cl)cc1Cl` (stereo not drawn) [Compound 65], for which the MIC worked out at 1.56 µg/mL (≈ 2.94 µM).
For the molecule `Cc1cc(Cl)ccc1OCCCNC(Cn1cncn1)c1ccc(Cl)cc1Cl` (stereo not drawn) [Compound 68], the MIC worked out at 25 µg/mL (≈ 56.8 µM).
On the same count and under the same terms, the same measure for `Clc1ccc(C(Cn2cncn2)NCCCOc2c(Cl)cccc2Cl)c(Cl)c1` (stereo not drawn) [Compound 72]: 3.12 µg/mL (≈ 6.78 µM); for `Clc1ccc(C(Cn2ccnc2)NCCCSc2ccccc2)c(Cl)c1` (stereo not drawn) [Compound 90]: 3.12 µg/mL (≈ 7.68 µM).

Another data set relates to Trichophyton verrucosum. The data set is described as above. The class given is cell-based. As to conditions: 336 h, pH 6, Trichophyton verrucosum, pH 6.0, 22° C., 14 days. On the procedure:
as §1, §2, §3, §4, §5, §6, §7, §8
As for `CN(CCCOc1ccc(I)cc1)C(Cn1ccnc1)c1ccc(Cl)cc1Cl` (stereo not drawn) [Compound 65], the lowest concentration to inhibit growth (MIC) was 1.56 µg/mL (≈ 2.94 µM).
Still for that read-out and setting: as for `Cc1cc(Cl)ccc1OCCCNC(Cn1cncn1)c1ccc(Cl)cc1Cl` (stereo not drawn) [Compound 68], the figure is 6.25 µg/mL (≈ 14.2 µM).
Still for that read-out and setting: the same measure for `Clc1ccc(C(Cn2cncn2)NCCCOc2c(Cl)cccc2Cl)c(Cl)c1` (stereo not drawn) [Compound 72]: 1.56 µg/mL (≈ 3.39 µM); for `Clc1ccc(C(Cn2ccnc2)NCCCSc2ccccc2)c(Cl)c1` (stereo not drawn) [Compound 90]: 1.56 µg/mL (≈ 3.84 µM).

The test system of the next data set is Trichophyton mentagrophytes. The data set is described as above. The class given is cell-based. As to conditions: 336 h, pH 6, Trichophyton mentagrophytes, pH 6.0, 22° C., 14 days. On the procedure:
as §1, §2, §3, §4, §5, §6, §7, §8
For the molecule `CN(CCCOc1ccc(I)cc1)C(Cn1ccnc1)c1ccc(Cl)cc1Cl` (stereo not drawn) [Compound 65], the MIC was 6.25 µg/mL (≈ 11.8 µM).
`Cc1cc(Cl)ccc1OCCCNC(Cn1cncn1)c1ccc(Cl)cc1Cl` (stereo not drawn) [Compound 68] registered an MIC of 25 µg/mL (≈ 56.8 µM).
The molecule `Clc1ccc(C(Cn2cncn2)NCCCOc2c(Cl)cccc2Cl)c(Cl)c1` (stereo not drawn) [Compound 72] yielded an MIC of 25 µg/mL (≈ 54.3 µM).
`Clc1ccc(C(Cn2ccnc2)NCCCSc2ccccc2)c(Cl)c1` (stereo not drawn) [Compound 90]: the lowest concentration to inhibit growth (MIC) was 25 µg/mL (≈ 61.5 µM).

The subject of another data set is Microsporum canis. The data set is described as above. It counts as cell-based. To be noted: 336 h, pH 6, Microsporum canis, pH 6.0, 22° C., 14 days. On the procedure: as §1, §2, §3, §4, §5, §6, §7, §8
Molecule `CN(CCCOc1ccc(I)cc1)C(Cn1ccnc1)c1ccc(Cl)cc1Cl` (stereo not drawn) [Compound 65] displayed an MIC of 1.56 µg/mL (≈ 2.94 µM).
The same measure, in the same setting: the same measure for `Cc1cc(Cl)ccc1OCCCNC(Cn1cncn1)c1ccc(Cl)cc1Cl` (stereo not drawn) [Compound 68]: 12.5 µg/mL (≈ 28.4 µM); for `Clc1ccc(C(Cn2cncn2)NCCCOc2c(Cl)cccc2Cl)c(Cl)c1` (stereo not drawn) [Compound 72]: 25 µg/mL (≈ 54.3 µM); for `Clc1ccc(C(Cn2ccnc2)NCCCSc2ccccc2)c(Cl)c1` (stereo not drawn) [Compound 90]: 3.12 µg/mL (≈ 7.68 µM).
